Measurements reported in patent US20250092081A1, “USE OF GLYCOSYLTRASNFERASE INHIBITORS FOR TREATING CANCER” (CALIFORNIA INSTITUTE OF TECHNOLOGY, priority 2020, published 2025).
In brackets after ≈: the same amount, converted by molar mass.

Columns and labels:
C. difficile spores = test: Spore viability testing; assay type: cell-based; conditions: for Viability of C. difficile spores: x2 MIC, 24 hours, CFU on taurocholate agar; for Inhibition of C. difficile spore germination: x5 MIC
C. difficile ATCC43596 = test: Minimum inhibitory concentration assay; conditions: for C. difficile ATCC43596 MIC: 48 h, 37° C., anaerobic
sheep blood = test: Hemolysis of sheep blood; assay type: cell-based; conditions: Ovis aries
[1] = test system: patient-derived cell line (BCI-12); test: Animal model of Her2+ breast cancer (BCI-12 implanted); assay type: in vivo; conditions: mice
Description: An animal model of Her2+ breast cancer was generated by implantation of cells of a patient-derived cell line (BCI-12) into mice. Said mice were treated with compound 11, with the therapeutic monoclonal antibody transtuzumab (TzMAb), or a combination of compound 11 and transtuzumab.

[2] = Cytotoxicity MTT assay, SK-OV-3; assay type: cell-based; conditions: human, SK-OV-3 cells
Description: (§1) Selected molecules were tested for cytotoxicity (IC50) in cancer and healthy cells via a MTT colorimetric assay.
(§2) Each cell was cultured in recommended medium by ATCC, and the IC50 data were obtained with each cell line.

C. difficile = test: Antibacterial activity (FIG. 4), C. difficile; assay type: cell-based
MDA-MB-231 cells [3] = test: Expression of tumor markers in MDA-MB-231 cells; assay type: cell-based; conditions: 48 hours of exposure, FIG. 12
From the text: It should be appreciated that MDA-MB-231 is a high DPAGT1 expressing, triple negative cell line. […] Erb2 (HER2), Erb3 (HER3), and Erb4 (HER4) are elevated.

[4] = Cytotoxicity MTT assay, LoVo; assay type: cell-based; conditions: human, LoVo cells
Description: as §1, §2

[5] = Cytotoxicity MTT assay, L12210; assay type: cell-based; conditions: mouse, L12210 cells
Description: as §1, §2

[6] = Cytotoxicity MTT assay, AsPc-1; assay type: cell-based; conditions: human, AsPc-1 cells
Description: as §1, §2

[7] = Cytotoxicity MTT assay, KB; assay type: cell-based; conditions: human, KB cells
Description: as §1, §2

WecA = WecA (Escherichia coli (strain K12), UniProt P0AC78); test: WecA assay (Table 1); conditions: relative to FR-900493 (1)
Sequence of WecA (P0AC78 whole entry, looked up, species assumed): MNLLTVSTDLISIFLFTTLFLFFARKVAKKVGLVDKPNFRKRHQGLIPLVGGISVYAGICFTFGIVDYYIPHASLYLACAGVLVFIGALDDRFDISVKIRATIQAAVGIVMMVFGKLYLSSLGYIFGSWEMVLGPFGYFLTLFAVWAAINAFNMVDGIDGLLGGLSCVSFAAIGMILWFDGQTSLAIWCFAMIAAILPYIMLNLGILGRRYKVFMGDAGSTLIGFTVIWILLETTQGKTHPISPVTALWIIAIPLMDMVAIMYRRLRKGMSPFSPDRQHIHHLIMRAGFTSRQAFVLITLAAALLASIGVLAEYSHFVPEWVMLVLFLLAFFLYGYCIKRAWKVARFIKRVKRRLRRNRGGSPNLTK

[8] = Cytotoxicity MTT assay, HCT 116; assay type: cell-based; conditions: human, HCT 116 cells
Description: as §1, §2

MraY = MraY (Escherichia coli (strain K12), UniProt P0A6W3); test: MraY assay; assay type: biochemical; conditions: relative to FR-900493 (1)
Sequence of MraY (P0A6W3 whole entry, looked up, species assumed): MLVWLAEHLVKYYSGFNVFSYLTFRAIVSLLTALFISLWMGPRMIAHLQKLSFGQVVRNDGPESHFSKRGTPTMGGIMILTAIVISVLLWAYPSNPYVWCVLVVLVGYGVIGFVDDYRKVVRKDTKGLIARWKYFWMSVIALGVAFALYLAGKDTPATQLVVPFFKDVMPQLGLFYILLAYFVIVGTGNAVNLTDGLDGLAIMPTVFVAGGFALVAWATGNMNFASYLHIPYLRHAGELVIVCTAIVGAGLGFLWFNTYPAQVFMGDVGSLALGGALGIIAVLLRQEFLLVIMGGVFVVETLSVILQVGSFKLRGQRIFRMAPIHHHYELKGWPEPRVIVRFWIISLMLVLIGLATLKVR

[9] = Cytotoxicity MTT assay, HPAF-II; assay type: cell-based; conditions: human, HPAF-II cells
Description: as §1, §2

[10] = Cytotoxicity MTT assay, MDA-MB-435S; assay type: cell-based; conditions: human, MDA-MB-435S cells
Description: as §1, §2

Panc-1 cells = test: Boyden chamber migration assay, Panc-1; assay type: cell-based; conditions: FIG. 7
MDA-MB-231 cells [11] = test: Animal model of triple negative breast cancer (MDA-MB-231 implanted); assay type: in vivo; conditions: mice, MDA-MB-231, 10 mg/kg/day, FIG. 10
Description: An animal model of triple negative breast cancer was generated by implantation of MDA-MB-231 cells into mice. […] A second group of mice were treated with paclitaxel at 15 mg/kg.

[12] = Cytotoxicity MTT assay, Panc-1; assay type: cell-based; conditions: human, Panc-1 cells
Description: as §1, §2

AsPc-1 cells = test: Scratch (wound healing) assay, AsPc-1; assay type: cell-based; conditions: FIG. 9
Vero cells = test: Cytotoxicity MTT assay, Vero cells; assay type: cell-based, monkey
Water solubility = assay type: physicochemical; conditions: 11 relative to 10
[13] = test system: AsPc-1 (pancreatic cancer) cells; test: Synergistic assay (checkerboard) on AsPc-1 cells; assay type: cell-based
Description: Synergistic Assay. The synergistic or antagonistic activities of 11 with other cancer drugs on AsPc-1 (pancreatic cancer) cells were assessed in vitro via micro dilution broth checkerboard technique previously reported. The FIC index was calculated according to the following equation. ΣFIC=FICA+FICB=CA/MICA+CB/MICB where MICA and MICB are MIC of drugs A and B, CA and CB are the concentrations of drugs A and B used in combination. In these interaction studies, ΣFIC of less than 0.5 represents synergistic activity.
These experiments were performed in the same manner as those of Example 8.

CCCCCCCc1ccc(NC(=O)CCCN(C)[C@H](C(N)=O)[C@H](OC2O[C@H](CN)[C@@H](O)[C@H]2O)[C@H]2O[C@@H](n3ccc(=O)[nH]c3=O)C(O)[C@H]2O)cc1 (stereo partly drawn) [Compound 9]
Viability of C. difficile spores (C. difficile spores): caused loss of viability
anti-C. difficile growth inhibitory activity (in words) (C. difficile ATCC43596): weak

CCCCCCCc1ccc(NC(=O)CCCN[C@H](C(N)=O)[C@H](OC2O[C@H](CN)[C@@H](O)[C@H]2O)[C@H]2O[C@@H](n3ccc(=O)[nH]c3=O)C(O)[C@H]2O)cc1 (stereo partly drawn) [Compound 10]
IC50 (sheep blood): 70000 nM
Viability of C. difficile spores (C. difficile spores): caused loss of viability

NC[C@H]1O[C@@H](O[C@H]([C@H]2O[C@@H](n3ccc(=O)[nH]c3=O)[C@H](O)[C@@H]2O)[C@H](NCCCC(=O)NCc2ccc(N3CCC(Oc4ccc(C(F)(F)F)cc4)CC3)cc2)C(N)=O)[C@H](O)[C@@H]1O [Compound 11]
effect compared with transtuzumab ([1]; BCI-12, FIG. 11): at least equivalent to transtuzumab
effect of combination of compound 11 and transtuzumab ([1]; BCI-12, about days 20 to 30 of treatment): Improved effects
IC50 [2]: 2850 nM
antibacterial activity against C. difficile (C. difficile): displayed antibacterial activity
expression of DPAGT1 (RPKM Expression Value) (MDA-MB-231 cells [3]): sharply reduced
expression of EGFR (HER1) (MDA-MB-231 cells [3]): sharply reduced
expression of Erb2 (HER2) (MDA-MB-231 cells [3]): elevated
expression of Erb3 (HER3) (MDA-MB-231 cells [3]): elevated
expression of Erb4 (HER4) (MDA-MB-231 cells [3]): elevated
IC50 [4]: 220 nM
IC50 [5]: > 100000 nM
IC50 [6]: 950 nM
IC50 [7]: 7090 nM
WecA inhibitory activity, more significant than 1 (WecA): about 15 fold
IC50 [8]: 3540 nM
MraY inhibitory activity, more significant than 1 (MraY): > 300 times
IC50 (sheep blood): 206000 nM
IC50 [9]: < 98 nM
IC50 [10]: 7090 nM
Panc-1 migratory cells (Panc-1 cells): fewer Panc-1 migratory cells than Gemcitabine, Taxol, and Tunicamycin
effect compared with paclitaxel (15 mg/kg) (MDA-MB-231 cells [11]): at least equivalent to palctitaxel
Viability of C. difficile spores (C. difficile spores): caused loss of viability
IC50 [12]: < 98 nM
AsPc-1 cell migration, scratch assay (AsPc-1 cells): less AsPc-1 cell migration than Gemcitabine
cytotoxic effects on healthy, non-cancerous Vero cells (Vero cells): little cytotoxic effects
water solubility greater than 10 (Water solubility): 200 times
effect of combinations of 11 and Taxol ([13]; AsPc-1, all five combinations, FIC < 0.5): synergistic effect
effect of combination of 11 and Gemcitabine ([13]; AsPc-1, both combinations): synergistic effect
IC50 A / IC50 B (drug alone) ([13]; AsPc-1 cells, Table 5): 982 nM
IC50 A / IC50 B (drug alone) ([13]; AsPc-1 cells, Table 6): 980 nM
AsPc-1 cells dead/alive ([13]; Compound 11 0.0488281 μM + Gemcitabine 0.024414 μM): alive
AsPc-1 cells dead/alive ([13]; Compound 11 0.0488281 μM + Gemcitabine 0.048828 μM): alive
AsPc-1 cells dead/alive ([13]; Compound 11 0.0488281 μM + Gemcitabine 0.097656 μM): dead
AsPc-1 cells dead/alive ([13]; Compound 11 0.0488281 μM + Gemcitabine 0.195313 μM): dead
AsPc-1 cells dead/alive ([13]; Compound 11 0.0488281 μM + Gemcitabine 0.390625 μM): dead
AsPc-1 cells dead/alive ([13]; Compound 11 0.0976563 μM + Gemcitabine 0.024414 μM): alive
AsPc-1 cells dead/alive ([13]; Compound 11 0.0976563 μM + Gemcitabine 0.048828 μM): alive
AsPc-1 cells dead/alive ([13]; Compound 11 0.0976563 μM + Gemcitabine 0.097656 μM): dead
AsPc-1 cells dead/alive ([13]; Compound 11 0.0976563 μM + Gemcitabine 0.195313 μM): dead
AsPc-1 cells dead/alive ([13]; Compound 11 0.0976563 μM + Gemcitabine 0.390625 μM): dead
AsPc-1 cells dead/alive ([13]; Compound 11 0.1953125 μM + Gemcitabine 0.024414 μM): alive
AsPc-1 cells dead/alive ([13]; Compound 11 0.1953125 μM + Gemcitabine 0.048828 μM): alive
AsPc-1 cells dead/alive ([13]; Compound 11 0.1953125 μM + Gemcitabine 0.097656 μM): dead
AsPc-1 cells dead/alive ([13]; Compound 11 0.1953125 μM + Gemcitabine 0.195313 μM): dead
AsPc-1 cells dead/alive ([13]; Compound 11 0.1953125 μM + Gemcitabine 0.390625 μM): dead
AsPc-1 cells dead/alive ([13]; Compound 11 0.390625 μM + Gemcitabine 0.024414 μM): alive
AsPc-1 cells dead/alive ([13]; Compound 11 0.390625 μM + Gemcitabine 0.048828 μM): alive
AsPc-1 cells dead/alive ([13]; Compound 11 0.390625 μM + Gemcitabine 0.097656 μM): dead
AsPc-1 cells dead/alive ([13]; Compound 11 0.390625 μM + Gemcitabine 0.195313 μM): dead
AsPc-1 cells dead/alive ([13]; Compound 11 0.390625 μM + Gemcitabine 0.390625 μM): dead
AsPc-1 cells dead/alive ([13]; Compound 11 0.78125 μM + Gemcitabine 0.024414 μM): alive
AsPc-1 cells dead/alive ([13]; Compound 11 0.78125 μM + Gemcitabine 0.048828 μM): alive
AsPc-1 cells dead/alive ([13]; Compound 11 0.78125 μM + Gemcitabine 0.097656 μM): dead
AsPc-1 cells dead/alive ([13]; Compound 11 0.78125 μM + Gemcitabine 0.195313 μM): dead
AsPc-1 cells dead/alive ([13]; Compound 11 0.78125 μM + Gemcitabine 0.390625 μM): dead

CN(CCCC(=O)NCc1ccc(N2CCC(Oc3ccc(C(F)(F)F)cc3)CC2)cc1)[C@H](C(N)=O)[C@H](O[C@@H]1O[C@H](CN)[C@@H](O)[C@H]1O)[C@H]1O[C@@H](n2ccc(=O)[nH]c2=O)[C@H](O)C1O (stereo partly drawn) [Compound 12]
anti-C. difficile growth inhibitory activity (in words) (C. difficile ATCC43596): weak

CN(CCCN)[C@H](C(=O)O)[C@H](O[C@@H]1O[C@H](CN)[C@@H](O)[C@H]1O)[C@H]1O[C@@H](n2ccc(=O)[nH]c2=O)[C@H](O)[C@@H]1O [FR-900493 (1), FR-900493]
C. difficile ATCC43596 MIC (C. difficile ATCC43596): >50 µg/mL

Nc1ccn([C@@H]2O[C@H](CO)[C@@H](O)C2(F)F)c(=O)n1 [Gemcitabine, reference compound]
IC50 A / IC50 B (drug alone) ([13]; AsPc-1 cells, Table 6): 390 nM
CA and CB (concentrations of drugs A and B used in combination) ([13]; AsPc-1 cells, combination of 11 (A) and Gemcitabine (B), per entry): 0.37 µM

CC(=O)O[C@H]1C(=O)[C@@]2(C)[C@H]([C@H](OC(=O)c3ccccc3)[C@]3(O)C[C@H](OC(=O)[C@H](O)[C@@H](NC(=O)c4ccccc4)c4ccccc4)C(C)=C1C3(C)C)[C@]1(OC(C)=O)CO[C@@H]1C[C@@H]2O [Taxol, Paclitaxel, reference compound]
IC50 [2]: 1080 nM
IC50 [4]: 57 nM
IC50 [5]: 550 nM
IC50 [6]: 190 nM
IC50 [7]: 790 nM
IC50 [9]: 20 nM
IC50 [10]: 110 nM
IC50 [12]: 20 nM
IC50 A / IC50 B (drug alone) ([13]; AsPc-1 cells, Table 5): 550 nM
lowest Taxol concentration to kill AsPc-1 cells when combined with 11 ([13]; combined with 11): 7 nM

CC(=O)NC[C@H]1CN(c2ccc(N3CCOCC3)c(F)c2)C(=O)O1 [linezolid, reference compound]
Inhibition of C. difficile spore germination (C. difficile spores): did not inhibit the spore germination

Cc1ncc([N+](=O)[O-])n1CCO [metronidazole, reference compound]
Inhibition of C. difficile spore germination (C. difficile spores): did not inhibit the spore germination

CN[C@H](CC(C)C)C(=O)N[C@H]1C(=O)N[C@@H](CC(N)=O)C(=O)N[C@H]2C(=O)N[C@H]3C(=O)N[C@H](C(=O)N[C@H](C(=O)O)c4cc(O)cc(O)c4-c4cc3ccc4O)[C@H](O)c3ccc(c(Cl)c3)Oc3cc2cc(c3O[C@@H]2O[C@H](CO)[C@@H](O)[C@H](O)[C@H]2O[C@H]2C[C@](C)(N)[C@H](O)[C@H](C)O2)Oc2ccc(cc2Cl)[C@H]1O [vancomycin, reference compound]
Inhibition of C. difficile spore germination (C. difficile spores): did not inhibit the spore germination
MIC against C. difficile (reference antibiotic) (C. difficile ATCC43596): 2.5 µg/mL (≈ 1.73 µM)

Tunicamycin
C. difficile ATCC43596 MIC (C. difficile ATCC43596): >50 µg/mL
